# Reference: US6329363A, “Cephalosporin antibiotics” (Eli Lilly and Company, priority 1998, dated 2001)
# Experiments:
# [1] = system: Staphylococcus aureus 10092 (Newbould strain); assay: MIC, in vitro activity vs. S.aureus 10092; format: cell-based; set-up: unit not given beside the values; details: Incubated at 37° C. overnight
# Experimental: (§1) Table 2 summarizes the minimal inhibitory concentrations (MIC's) at which illustrative formula I compounds and cephalothin inhibit certain microorganisms associated with mastitis, such as Staphylococcus aureus 10092 (Newbould strain).
# (§2) ^a Incubated at 37° C. overnight
# [2] = system: Staphylococcus aureus 10092 (Newbould); assay: Efficacy in induced Staphylococcus aureus mastitis model in lactating goats; format: in vivo; details: 8 halves per compound, 2 consecutive milkings 12 hours apart, approximately 25 mg/5 mL dose in peanut oil, from 36 hours post-challenge
# Description: Sixteen lactating goats were selected based on the absence of Staphylococcus aureus in pre-challenge milk cultures. Maintenance ration was provided to the animals throughout the study. The goats were milked twice each day using a portable goat milker.
# Milk samples were collected during the morning milking. One day prior to challenge, milk culture samples were collected from each half of the test animals to determine if there was a pre-existing infection. Additionally, a sample was collected from each half for Somatic Cell Count (SCC) determination. A milk culture sample and a sample for SCC were collected from each half 24 hours post-challenge and on Days +4 to +6, +8, +11, +13, and +15.
# Udder scoring was performed during each milking wing table:
# General health observations and body temperature were recorded once a day following milking during the challenge and treatment periods.
# Milk samples were submitted for analysis for SCC using an electronic somatic cell counting system.
# Milk culture samples were assayed for bacterial culture by plating 1.0 mL and 0.1 mL of the milk sample directly onto duplicate blood agar plates. Additionally, dilutions 10^-1 of the milk sample were plated. Plates were incubated overnight at 37° C.
# Staphylococcus aureus 10092 (Newbould) was used as the challenge strain. The challenge culture was grown in Tryptic Soy Broth (TSB) from a lyovial stock overnight (16 hours) at 37° C. TSB (100 mL) was inoculated with 1 mL of the overnight culture and incubated at 37° C. with shaking for 4 hours. The culture was centrifuged at 9000 rpm for 10 minutes at 10° C.; supernatant was removed and the pellet was resuspended in phosphate buffered saline (PBS). Optimum O.D. reading at 650 nm was approximately 0.035. A 10-fold dilution series was prepared with saline to determine the CFU/mL, plating 10^-5, 10^-6, and 10^-7 dilutions onto duplicate blood agar plates. The 10^-7 dilution (approximately 10 CFU/mL) was used for the challenge material, yielding a challenge of 50 CFU/half with a 5-mL infusion.
# Sixteen goats were used for the trial. During a one day pre-challenge period, milk samples were collected and temperatures were taken during the morning milking. Milk/udder evaluations were documented during the morning and afternoon milkings.
# Staphylococcus aureus 10092 was infused into both halves in each of the goats. The goats were challenged following the morning milking and milked in the afternoon on the day of challenge. The challenge inoculum volume was 5 mL/half containing approximately 50 CFU S. aureus.
# For the 24 hr post-challenge period milk samples were collected during the morning milking, and milk/udder evaluations made during the morning and afternoon milking.
# Treatment was started at 36 hours post-challenge. Milk samples were collected for culture and SCC 24 hours post-challenge, prior to the morning milking, and the treatment period started following the afternoon milking.
# Eight halves (4 goats) each were treated for 2 consecutive milkings 12 hours apart, following milking. Each designated compound was formulated in peanut oil with […] of compound per 5 g of formulation to give approximately 25 mg/5 mL dose.
# Following treatment, the goats were milked and observed for 15 days. Milk samples were collected on Days +4 to +6, +8, +11, +13, and +15 to determine if the infection had cleared.
# Establishment of mastitis was determined by bacterial culturing, severity of udder scoring, somatic cell count results, and body temperature.
# On Days +2 to +6, milk samples were collected for a calorimetric assay to determine whether the antibiotic was still present in the milk.
# [3] = system: Streptococcus uberis 150 L; assay: MIC, in vitro activity vs. Streptococcus uberis 150 L; format: cell-based; set-up: unit not given beside the values; details: Incubated at 37° C. overnight
# Experimental: as §1, §2
# [4] = system: pasteurella multocida ATCC 12945; assay: MIC against Gram-negative organisms: pasteurella multocida ATCC 12945; format: cell-based; details: Incubated at 37° C. overnight; unit assumed
# Experimental: (§3) The formula I compounds are also active against certain Gram-negative species.
# as §2
# S.aureus ATCC 29213 = assay: MIC, in vitro activity vs. S.aureus ATCC 29213; format: cell-based, Staphylococcus aureus; set-up: unit not given beside the values; details: Incubated at 37° C. overnight
# Experimental: as §1, §2
# [5] = system: pasteurella multocida 1051 (swine); assay: MIC against Gram-negative organisms: pasteurella multocida 1051 (swine); format: cell-based; details: Incubated at 37° C. overnight; unit assumed
# Experimental: as §3, §2
# [6] = system: Strepcococcus dysgalactiae; assay: MIC, in vitro activity vs. Streptococcus dysgalactiae; format: cell-based; set-up: unit not given here; details: Incubated at 37° C. overnight
# Experimental: as §1, §2
# Streptococcus agalactiae = assay: MIC, in vitro activity vs. Streptococcus agalactiae; format: cell-based; set-up: unit not given here; details: Incubated at 37° C. overnight
# Experimental: as §1, §2
# [7] = system: Pasteurella haemolytica 128K (bovine); assay: MIC against Gram-negative organisms: Pasteurella haemolytica 128K (bovine); format: cell-based; details: Incubated at 37° C. overnight; unit assumed
# Experimental: as §3, §2
# Salmonella typhimurium = assay: MIC against Gram-negative organisms: Salmonella typhimurium; format: cell-based; details: Incubated at 37° C. overnight; unit assumed
# Experimental: as §3, §2
# [8] = system: pasteurella multocida 10,102 (bovine); assay: MIC against Gram-negative organisms: pasteurella multocida 10,102 (bovine); format: cell-based; details: Incubated at 37° C. overnight; unit assumed
# Experimental: as §3, §2
# S.aureus 174 C = assay: MIC, in vitro activity vs. S.aureus 174 C; format: cell-based, Staphylococcus aureus; set-up: unit not given beside the values; details: Incubated at 37° C. overnight
# Experimental: as §1, §2
# S.aureus F1C = assay: MIC, in vitro activity vs. S.aureus F1C; format: cell-based, Staphylococcus aureus; set-up: unit not given beside the values; details: Incubated at 37° C. overnight
# Experimental: as §1, §2
# [9] = system: Pasteurella haemolytica 129R (bovine); assay: MIC against Gram-negative organisms: Pasteurella haemolytica 129R (bovine); format: cell-based; details: Incubated at 37° C. overnight; unit assumed
# Experimental: as §3, §2
# [10] = system: Streptococcus uberis 166 L; assay: MIC, in vitro activity vs. Streptococcus uberis 166 L; format: cell-based; set-up: unit not given beside the values; details: Incubated at 37° C. overnight
# Experimental: as §1, §2
# Mastitis in Cows = assay: Efficacy in mastitis in lactating cows; format: in vivo; details: three trials, 450 mmoles/quarter/dose for two doses
# Experimental: Compound 1 was administered to lactating cows in three trials using methods analogous to those used in the goat model described in Example 13. A total of 43 quarters were treated with Compound 1, and 36 quarters were treated with cephapirin (Cefa-Lak). Both compounds were administered at 450 mmoles/quarter/dose for two doses. Compound 1 effectively treated 27 out of 43 quarters for an overall cure rate of 63%, whereas cephapirin effectively treated 18 out of 36 quarters for an overall cure rate of only 50%.
# [11] = system: pasteurella multocida 108E (bovine); assay: MIC against Gram-negative organisms: pasteurella multocida 108E (bovine); format: cell-based; details: Incubated at 37° C. overnight; unit assumed
# Experimental: as §3, §2
# Escherichia coli = assay: MIC against Gram-negative organisms: Escherichia coli; format: cell-based; details: Incubated at 37° C. overnight; unit assumed
# Experimental: as §3, §2
# [12] = system: Pasteurella haemolytica 114F (bovine); assay: MIC against Gram-negative organisms: Pasteurella haemolytica 114F (bovine); format: cell-based; details: Incubated at 37° C. overnight; unit assumed
# Experimental: as §3, §2
Compound,MIC vs. S.aureus 10092 [1],% Bacteriologic Cures [2] [%],MIC vs. Streptococcus uberis 150 L [3],"MIC, pasteurella multocida ATCC 12945 [4] [µg/mL]",MIC vs. S.aureus ATCC 29213 (S.aureus ATCC 29213),"MIC, pasteurella multocida 1051 (swine) [5] [µg/mL]",MIC vs. Strepcococcus dysgalactiae [6],MIC vs. Streptococcus agalactiae (Streptococcus agalactiae),"MIC, Pasteurella haemolytica 128K (bovine) [7] [µg/mL]","MIC, Salmonella typhimurium (Salmonella typhimurium) [µg/mL]","MIC, pasteurella multocida 10,102 (bovine) [8] [µg/mL]",MIC vs. S.aureus 174 C (S.aureus 174 C),MIC vs. S.aureus F1C (S.aureus F1C),"MIC, Pasteurella haemolytica 129R (bovine) [9] [µg/mL]",MIC vs. Streptococcus uberis 166 L [10],overall cure rate (Mastitis in Cows) [%],quarters effectively treated (Mastitis in Cows),"MIC, pasteurella multocida 108E (bovine) [11] [µg/mL]","MIC, Escherichia coli (Escherichia coli) [µg/mL]","MIC, Pasteurella haemolytica 114F (bovine) [12] [µg/mL]"
Cc1nnc(SCC2=C(C(=O)O)N3C(=O)[C@@H](NC(=O)COc4c(F)c(F)c(F)c(F)c4F)[C@H]3SC2)s1 [Compound 1],0.25,71,0.25,0.25,0.25,0.25,0.125,0.25,4,≤ 128,0.25,0.25,0.5,4,0.25,63,27 out of 43,0.25,≤ 128,8
Cc1nnc(SCC2=C(C(=O)O)N3C(=O)[C@@H](NC(=O)COc4ccc(OC(F)(F)F)cc4)[C@H]3SC2)s1 [Compound 7],0.312,100,0.0156,–,0.312,–,≤ 0.0078,0.0312,–,–,–,0.312,0.0625,–,0.0078,–,–,–,–,–
Cc1nnc(SCC2=C(C(=O)O)N3C(=O)[C@@H](NC(=O)COc4cc(F)cc(F)c4)[C@H]3SC2)s1 [Compound 10],0.0312,33,0.0312,–,0.0312,–,0.0312,0.0156,–,–,–,0.0312,0.0312,–,0.0156,–,–,–,–,–
Cc1nnc(SCC2=C(C(=O)O)N3C(=O)[C@@H](NC(=O)CSc4c(F)c(F)c(F)c(F)c4F)[C@H]3SC2)s1 [Compound 3],0.625,50,–,–,0.125,–,0.0156,0.0156,–,–,–,0.0625,0.125,–,0.0156,–,–,–,–,–
Cc1nnc(SCC2=C(C(=O)O)N3C(=O)[C@@H](NC(=O)COc4ccc(F)cc4)[C@H]3SC2)s1 [Compound 8],0.0312,100,0.0312,–,0.312,–,0.0312,0.0312,–,–,–,0.0312,0.0312,–,0.0312,–,–,–,–,–
Cc1nnc(SCC2=C(C(=O)O)N3C(=O)[C@@H](NC(=O)CSc4c(F)c(F)c(C(F)(F)F)c(F)c4F)[C@H]3SC2)s1 [Compound 5],0.0625,33,0.0156,–,0.0625,–,0.0625,0.0156,–,–,–,0.0625,0.125,–,–,–,–,–,–,–
